Assays:
Type in all cases: cell-based, rat
[1] = test system: growth cones of adult DRG neurons; assay: Growth cone area/size of DRG sensory axons (DIC imaging)
Protocol: (§1) HDAC6 inhibition increases growth cone size of sensory axons. Given our previous work showing that HDAC6 inhibition allows axons to grow on MAG and CSPG substrates (Rivieccio et al., 2009; Butler et al., 2010), we asked how inhibition of HDAC6 alters axon growth in cultures of adult dorsal root ganglion (DRG) neurons. […] (A) Quantification of neurite length for dissociated DRGs cultured on laminin with addition of HDAC6 inhibitor TubA (10 μm) versus vehicle control (DMSO) over 1 h is shown as average fold-change relative to vehicle±SEM (n≥95 neurons across three independent experiments; NS by one-way ANOVA with Bonferroni post hoc). (B and C) show representative DIC images of distal axons from DRG neurons cultured as in A are shown (B). 1-h TubA treatment appears to increase growth cone size. Analyses of growth cone area across multiple experiments show a significant increase in area after TubA treatment (C). Values are average fold-change±SEM (n≥26 neurons over at least three culture preparations; ***, P≤0.005 by one-way ANOVA with Bonferroni post hoc; scale bar=5 μm; 40×/1.3 NA objective used). […] Prominent HDAC6 signals are seen in distal axons and growth cones (arrows) regardless of TubA exposure. […]
(§2) NF-stained cultures were used for neurite growth analyses. […] The growth cone area was measured using ImageJ software from these annotated DIC images. […]

[2] = test system: growth cones of DRG neurons; assay: Growth cone retraction after bath-applied growth inhibitors; conditions: 10 μM TubA
Description: MAG and CSPGs are more often tested as surface-bound substrates than with the bath applications used here. Thus, we tested whether bath application of growth inhibitors would cause growth cone retraction in a manner similar to surface-bound inhibitors. […] RhoA activation is a well-known downstream mediator for the growth-inhibitory effects of both MAG and CSPGs (Fujita and Yamashita, 2014), so we tested whether the RhoA/ROCK pathway contributes to the impact of aggregan on mitochondria distribution in growth cones.
MAG or Aggrecan exposures were performed as bath application or on coated substrates. For bath application, dissociated DRGs were cultured for 48 h and treated with 25 μg/ml of MAG-Fc (R&D Systems; 538-MG), 25 μg/ml Fc control (R&D Systems; 110-HG), or 10 μg/ml of Aggrecan (Sigma-Aldrich; A1960) for 4 h. Cultures were pretreated with either Ca^2+ chelator BAPTA-AM (3 μM; Sigma-Aldrich; A1076), ROCK inhibitor Y27632 (10 μM; Sigma-Aldrich; SCM075), HDAC6 inhibitor TubA (10 μM; R&D Systems; 6270), Thapsigargin (1 μM; Sigma-Aldrich; T9033), Rho Activator II (1 μg/ml; Cytoskeleton; CNO3), or equivalent volume DMSO 30 min before MAG-Fc, Aggrecan, or controls. For substrate-bound experiments, adult DRGs were cultured on glass bottom dishes (Greiner) that were coated with 25 μg/ml Aggrecan in addition to the laminin/poly-D-lysine substrate.

[3] = test system: adult dorsal root ganglion (DRG) neurons; assay: Neurite length of dissociated adult DRG neurons cultured on laminin; conditions: 10 μM, 1 h
Protocol: as §1, §2

In the case of `CN1CCc2c(c3ccccc3n2Cc2ccc(C(=O)NO)cc2)C1` [TubA, tubastatin], the “time after exposure at which growth cone enlargement was apparent” value ([1]; 10 μM TubA, time-lapse DIC) is reported as ≤ 10 min, the “growth cone size vs vehicle controls” value ([1]; 10 μM, 1 h, laminin) is reported as “significantly larger growth cones” and the “effect on aggrecan-induced growth cone retraction” value [2] is reported as “prevented by application of TubA”. For the same compound, the “neurite length vs vehicle” value [3] was “did not significantly affect neurite length”.
